pKi: −log10 of the molar value.
These compounds were tested against T1, human NK3 receptor (Homo sapiens, UniProt P29371) (assay: [3H]SR142801 competition binding assay). Conditions: not given.
T1 construct: expressed in transfected cells; host or cells: HEK293 cells, transiently transfected; membranes
T1 sequence (P29371 1-465): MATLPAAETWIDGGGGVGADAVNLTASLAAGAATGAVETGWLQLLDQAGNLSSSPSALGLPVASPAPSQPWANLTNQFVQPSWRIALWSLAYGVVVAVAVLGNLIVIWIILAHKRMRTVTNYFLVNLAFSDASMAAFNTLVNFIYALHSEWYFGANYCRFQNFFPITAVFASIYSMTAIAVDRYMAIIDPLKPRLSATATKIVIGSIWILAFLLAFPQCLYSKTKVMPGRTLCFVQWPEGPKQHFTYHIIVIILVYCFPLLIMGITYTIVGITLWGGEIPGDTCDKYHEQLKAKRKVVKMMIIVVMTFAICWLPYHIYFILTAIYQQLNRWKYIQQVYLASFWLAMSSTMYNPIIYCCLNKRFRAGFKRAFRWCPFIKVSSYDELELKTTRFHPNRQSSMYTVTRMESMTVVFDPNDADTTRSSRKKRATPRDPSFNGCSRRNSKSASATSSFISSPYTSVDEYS
Outline: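 Membranes from HEK293 cells transiently expressing human NK3 receptor incubated 75 min at RT with [3H]SR142801 at its KD and compound (0.0003-10 μM) in pH 7.4 Tris/MnCl2 buffer. Filtration and scintillation counting, nonspecific binding with 10 μM SB222200. IC50 from Hill fit, Ki by Cheng-Prusoff, duplicates.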

| Compound | pKi |
| --- | --- |
| CN(Cc1ccc(-c2ccncc2)cc1)C(=O)C(CCN1CCC2(CC1)OC(=O)N(C)c1ccc(F)cc12)c1ccc(Cl)c(Cl)c1 (centres unmarked) [Example 97, 2-(3,4-dichlorophenyl)-4-(6-fluoro-1-methyl-2-oxo-1,2-dihydro-1′H-spiro[3,1-benzoxazine-4,4′-piperidin]-1′-yl)-N-methyl-N-(4-pyridin-4-ylbenzyl)butanamide] | 8.03 |
| O=C1Nc2ccc(F)cc2C2(CCN(CCCC(C(=O)NCc3ccc(F)cc3)c3ccc(Cl)c(Cl)c3)CC2)O1 (centres unmarked) [Example 132, 2-(3,4-dichlorophenyl)-N-(4-fluorobenzyl)-5-(6-fluoro-2-oxo-1,2-dihydro-1′H-spiro[3,1-benzoxazine-4,4′-piperidin]-1′-yl)-pentanamide] | 7.18 |

Same assay, conditions: [3H]SR142801 displacement, membranes of HEK293 cells transiently expressing recombinant human NK3 receptor; read-out: hNK3 Ki

| Compound | pKi |
| --- | --- |
| Cc1ccc(CN(C)C(=O)C(CCN2CCC3(CC2)OC(=O)N(C)c2ccc(F)cc23)c2ccc(Cl)c(Cl)c2)cc1 (centres unmarked) [Example 102, 2-(3,4-dichlorophenyl)-4-(6-fluoro-1-methyl-2-oxo-1,2-dihydro-1′H-spiro[3,1-benzoxazine-4,4′-piperidin]-1′-yl)-N-methyl-N-(4-methylbenzyl)butanamide] | 8.68 |
| CN1C(=O)OC2(CCN(CCC(C(=O)NCc3ccc(-c4csnn4)cc3)c3ccc(Cl)c(Cl)c3)CC2)c2cc(F)ccc21 (centres unmarked) [Example 109, 2-(3,4-dichlorophenyl)-4-(6-fluoro-1-methyl-2-oxo-1,2-dihydro-1′H-spiro[3,1-benzoxazine-4,4′-piperidin]-1′-yl)-N-[4-(1,2,3-thiadiazol-4-yl)benzyl]butanamide] | 7.72 |
| Cc1ccsc1CNC(=O)C(CCCN1CCC2(CC1)OC(=O)Nc1ccc(F)cc12)c1ccc(Cl)c(Cl)c1 (centres unmarked) [Example 116, 2-(3,4-dichlorophenyl)-5-(6-fluoro-2-oxo-1,2-dihydro-1′H-spiro[3,1-benzoxazine-4,4′-piperidin]-1′-yl)-N-[(3-methyl-2-thienyl)methyl]pentanamide] | 7.18 |

Same assay, conditions: hNK3 Ki, [3H]SR142801 displacement, membranes of HEK293 cells transiently expressing recombinant human NK3 receptor

| Compound | pKi |
| --- | --- |
| CN(Cc1ccc(N2CCOCC2)cc1)C(=O)C(CCN1CCC2(CC1)OC(=O)N(C)c1ccc(F)cc12)c1ccc(Cl)c(Cl)c1 (centres unmarked) [Example 95, 2-(3,4-dichlorophenyl)-4-(6-fluoro-1-methyl-2-oxo-1,2-dihydro-1′H-spiro[3,1-benzoxazine-4,4′-piperidin]-1′-yl)-N-methyl-N-(4-morpholin-4-ylbenzyl)butanamide] | 7.54 |
| COc1ccc(CN(C)C(=O)C(CCN2CCC3(CC2)OC(=O)N(C)c2ccc(F)cc23)c2ccc(Cl)c(Cl)c2)cc1F (centres unmarked) [Example 99, 2-(3,4-dichlorophenyl)-N-(3-fluoro-4-methoxybenzyl)-4-(6-fluoro-1-methyl-2-oxo-1,2-dihydro-1′H-spiro[3,1-benzoxazine-4,4′-piperidin]-1′-yl)-N-methyl-butanamide] | 8.62 |
| COc1cc(CN(C)C(=O)C(CCN2CCC3(CC2)OC(=O)N(C)c2ccc(F)cc23)c2ccc(Cl)c(Cl)c2)ccc1OC(F)F (centres unmarked) [Example 100, 2-(3,4-dichlorophenyl)-N-[4-(difluoromethoxy)-3-methoxybenzyl]-4-(6-fluoro-1-methyl-2-oxo-1,2-dihydro-1′H-spiro[3,1-benzoxazine-4,4′-piperidin]-1′-yl)-N-methyl-butanamide] | 8.59 |
| CN(Cc1cccc(F)c1)C(=O)C(CCN1CCC2(CC1)OC(=O)N(C)c1ccc(F)cc12)c1ccc(Cl)c(Cl)c1 (centres unmarked) [Example 101, 2-(3,4-dichlorophenyl)-N-(3-fluorobenzyl)-4-(6-fluoro-1-methyl-2-oxo-1,2-dihydro-1′H-spiro[3,1-benzoxazine-4,4′-piperidin]-1′-yl)-N-methyl-butanamide] | 8.89 |
| CN1C(=O)OC2(CCN(CCC(C(=O)NCc3cccc(OC(F)(F)F)c3)c3ccc(Cl)c(Cl)c3)CC2)c2cc(F)ccc21 (centres unmarked) [Example 103, 2-(3,4-dichlorophenyl)-4-(6-fluoro-1-methyl-2-oxo-1,2-dihydro-1′H-spiro[3,1-benzoxazine-4,4′-piperidin]-1′-yl)-N-[3-(trifluoromethoxy)benzyl]butanamide] | 8.43 |
| CN(Cc1cccc(C(F)(F)F)c1)C(=O)C(CCN1CCC2(CC1)OC(=O)N(C)c1ccc(F)cc12)c1ccc(Cl)c(Cl)c1 (centres unmarked) [Example 104, 2-(3,4-dichlorophenyl)-4-(6-fluoro-1-methyl-2-oxo-1,2-dihydro-1′H-spiro[3,1-benzoxazine-4,4′-piperidin]-1′-yl)-N-methyl-N-[3-(trifluoromethyl)benzyl]butanamide] | 8.80 |
| CN(Cc1ccc(F)cc1)C(=O)C(CCN1CCC2(CC1)OC(=O)N(C)c1ccc(F)cc12)c1ccc(Cl)c(Cl)c1 (centres unmarked) [Example 105, 2-(3,4-dichlorophenyl)-N-(4-fluorobenzyl)-4-(6-fluoro-1-methyl-2-oxo-1,2-dihydro-1′H-spiro[3,1-benzoxazine-4,4′-piperidin]-1′-yl)-N-methyl-butanamide] | 9.00 |
| CN1C(=O)OC2(CCN(CCC(C(=O)NCc3ccc(F)cc3)c3ccc(Cl)c(Cl)c3)CC2)c2cc(F)ccc21 (centres unmarked) [Example 106, 2-(3,4-dichlorophenyl)-N-(4-fluorobenzyl)-4-(6-fluoro-1-methyl-2-oxo-1,2-dihydro-1′H-spiro[3,1-benzoxazine-4,4′-piperidin]-1′-yl)-butanamide] | 8.57 |
| COc1ccc(CNC(=O)C(CCN2CCC3(CC2)OC(=O)N(C)c2ccc(F)cc23)c2ccc(Cl)c(Cl)c2)cc1 (centres unmarked) [Example 107, 2-(3,4-dichlorophenyl)-4-(6-fluoro-1-methyl-2-oxo-1,2-dihydro-1′H-spiro[3,1-benzoxazine-4,4′-piperidin]-1′-yl)-N-(4-methoxybenzyl)butanamide] | 8.27 |
| CN1C(=O)OC2(CCN(CCC(C(=O)NCc3cccc(C(F)(F)F)c3)c3ccc(Cl)c(Cl)c3)CC2)c2cc(F)ccc21 (centres unmarked) [Example 108, 2-(3,4-dichlorophenyl)-4-(6-fluoro-1-methyl-2-oxo-1,2-dihydro-1′H-spiro[3,1-benzoxazine-4,4′-piperidin]-1′-yl)-N-[3-(trifluoromethyl)benzyl]butanamide] | 8.52 |
| CN1C(=O)OC2(CCN(CCC(C(=O)NCc3ccc(OC(F)(F)F)cc3)c3ccc(Cl)c(Cl)c3)CC2)c2cc(F)ccc21 (centres unmarked) [Example 110, 2-(3,4-dichlorophenyl)-4-(6-fluoro-1-methyl-2-oxo-1,2-dihydro-1′H-spiro[3,1-benzoxazine-4,4′-piperidin]-1′-yl)-N-[4-(trifluoromethoxy)benzyl]butanamide] | 8.49 |
| CN1C(=O)OC2(CCN(CCC(C(=O)NCc3ccc(C#N)cc3)c3ccc(Cl)c(Cl)c3)CC2)c2cc(F)ccc21 (centres unmarked) [Example 111, N-(4-cyanobenzyl)-2-(3,4-dichlorophenyl)-4-(6-fluoro-1-methyl-2-oxo-1,2-dihydro-1′H-spiro[3,1-benzoxazine-4,4′-piperidin]-1′-yl)butanamide] | 8.51 |
| O=C1Nc2ccc(F)cc2C2(CCN(CCCC(C(=O)NCc3ccccc3OC(F)(F)F)c3ccc(Cl)c(Cl)c3)CC2)O1 (centres unmarked) [Example 118, 2-(3,4-dichlorophenyl)-5-(6-fluoro-2-oxo-1,2-dihydro-1′H-spiro[3,1-benzoxazine-4,4′-piperidin]-1′-yl)-N-[2-(trifluoromethoxy)benzyl]pentanamide] | 7.19 |
| CN(Cc1ccc(Cl)cc1)C(=O)C(CCCN1CCC2(CC1)OC(=O)Nc1ccc(F)cc12)c1ccc(Cl)c(Cl)c1 (centres unmarked) [Example 120, N-(4-chlorobenzyl)-2-(3,4-dichlorophenyl)-5-(6-fluoro-2-oxo-1,2-dihydro-1′H-spiro[3,1-benzoxazine-4,4′-piperidin]-1′-yl)-N-methylpentanamide] | 7.33 |
| CN(Cc1ccc(C(F)(F)F)cc1)C(=O)C(CCCN1CCC2(CC1)OC(=O)Nc1ccc(F)cc12)c1ccc(Cl)c(Cl)c1 (centres unmarked) [Example 121, 2-(3,4-dichlorophenyl)-5-(6-fluoro-2-oxo-1,2-dihydro-1′H-spiro[3,1-benzoxazine-4,4′-piperidin]-1′-yl)-N-methyl-N-[4-(trifluoromethyl)benzyl]pentanamide] | 7.19 |
| O=C1Nc2ccc(F)cc2C2(CCN(CCCC(C(=O)NCc3ccc(Cl)cc3)c3ccc(Cl)c(Cl)c3)CC2)O1 (centres unmarked) [Example 125, N-(4-chlorobenzyl)-2-(3,4-dichlorophenyl)-5-(6-fluoro-2-oxo-1,2-dihydro-1′H-spiro[3,1-benzoxazine-4,4′-piperidin]-1′-yl)pentanamide] | 7.01 |
| CN(Cc1cccc(C(F)(F)F)c1)C(=O)C(CCCN1CCC2(CC1)OC(=O)Nc1ccc(F)cc12)c1ccc(Cl)c(Cl)c1 (centres unmarked) [Example 130, 2-(3,4-dichlorophenyl)-5-(6-fluoro-2-oxo-1,2-dihydro-1′H-spiro[3,1-benzoxazine-4,4′-piperidin]-1′-yl)-N-methyl-N-[3-(trifluoromethyl)benzyl]pentanamide] | 7.04 |
| CN(Cc1ccc(F)cc1)C(=O)C(CCCN1CCC2(CC1)OC(=O)Nc1ccc(F)cc12)c1ccc(Cl)c(Cl)c1 (centres unmarked) [Example 131, 2-(3,4-dichlorophenyl)-N-(4-fluorobenzyl)-5-(6-fluoro-2-oxo-1,2-dihydro-1′H-spiro[3,1-benzoxazine-4,4′-piperidin]-1′-yl)-N-methylpentanamide] | 7.16 |

Reference: patent publication US7470684B2, “Spiropiperidine derivatives as NK3 antagonists” (Hoffmann-La Roche Inc., priority 2007, dated 2008)
